Like-named read-outs stand apart in the source and are kept apart here.
Molecular target: T1, PI3K delta (Homo sapiens, UniProt O00329)
T1 construct: for the full-length p110-d subunit are generated and fused by overlapping PCR; His tag (C); made in house; host or cells: baculovirus BV1060; Tn5 (Trichoplusia ni) or TiniPro insect cells
Assay: PI3K delta kinase assay (Kinase-Glo luminescence)
Assay type: biochemical
Outline: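 IC50s derive from 8-point inhibition curves fitted to a 4-parameter logistic model. Reaction: 10 nM purified p110δ/p85 iSH2 fusion, 1 μM ATP, 10 μg/mL PI substrate, pH 7.5 Tris buffer with MgCl2, NaCl, CHAPS and DTT, run 60 min at room temperature; remaining ATP read by Kinase-Glo luminescence.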

T1 sequence (O00329 with tags, fused parts or gaps limits assumed): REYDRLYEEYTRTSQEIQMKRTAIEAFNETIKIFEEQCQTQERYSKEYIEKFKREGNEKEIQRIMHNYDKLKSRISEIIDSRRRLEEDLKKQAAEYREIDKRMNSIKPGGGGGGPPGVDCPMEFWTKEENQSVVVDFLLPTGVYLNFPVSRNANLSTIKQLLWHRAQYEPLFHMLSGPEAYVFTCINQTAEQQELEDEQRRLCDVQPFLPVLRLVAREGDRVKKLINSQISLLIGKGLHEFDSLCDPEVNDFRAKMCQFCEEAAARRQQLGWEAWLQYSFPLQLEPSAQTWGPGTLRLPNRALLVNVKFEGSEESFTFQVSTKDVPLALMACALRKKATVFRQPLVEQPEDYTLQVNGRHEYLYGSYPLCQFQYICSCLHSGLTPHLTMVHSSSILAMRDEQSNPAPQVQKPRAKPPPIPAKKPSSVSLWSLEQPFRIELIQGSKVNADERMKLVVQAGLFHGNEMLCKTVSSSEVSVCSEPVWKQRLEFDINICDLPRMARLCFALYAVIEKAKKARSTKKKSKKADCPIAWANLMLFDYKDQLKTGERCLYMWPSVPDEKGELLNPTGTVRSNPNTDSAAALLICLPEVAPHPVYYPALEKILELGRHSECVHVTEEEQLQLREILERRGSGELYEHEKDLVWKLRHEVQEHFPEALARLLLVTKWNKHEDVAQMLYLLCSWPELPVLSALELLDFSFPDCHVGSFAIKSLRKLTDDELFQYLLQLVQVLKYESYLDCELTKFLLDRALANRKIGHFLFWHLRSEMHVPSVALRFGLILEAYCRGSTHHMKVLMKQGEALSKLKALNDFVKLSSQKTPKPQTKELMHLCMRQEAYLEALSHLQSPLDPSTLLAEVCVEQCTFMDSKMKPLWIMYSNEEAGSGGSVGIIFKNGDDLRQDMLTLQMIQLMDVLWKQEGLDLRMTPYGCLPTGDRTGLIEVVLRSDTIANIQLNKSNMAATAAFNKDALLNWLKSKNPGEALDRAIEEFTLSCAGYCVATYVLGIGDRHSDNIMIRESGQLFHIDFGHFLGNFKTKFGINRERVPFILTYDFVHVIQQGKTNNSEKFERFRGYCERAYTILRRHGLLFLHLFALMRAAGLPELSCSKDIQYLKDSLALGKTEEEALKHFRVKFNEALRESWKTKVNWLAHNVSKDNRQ

Structure (SMILES)	IC50 (read-out: EPK_PI3Kdelta/IC50) [µM]	IC50 (read-out: PI3Kdelta/IC50) [µM]
CCNc1cc(-c2ccc3ncc4c(c3c2)n(-c2cccnc2C)c(=O)n4C)cnc1CO [Example 2.31, 8-(5-Ethylamino-6-hydroxymethyl-pyridin-3-yl)-3-methyl-1-(2-methyl-pyridin-3-yl)-1,3-dihydro-imidazo[4,5-c]quinolin-2-one]	0.025	
CNc1ccc(-c2ccc3ncc4c(c3c2)n(-c2ccc(N3CCC3)nc2C)c(=O)n4C)cn1 [Example 23.4, 1-(6-Azetidin-1-yl-2-methyl-pyridin-3-yl)-3-methyl-8-(6-methylamino-pyridin-3-yl)-1,3-dihydro-imidazo[4,5-c]quinolin-2-one]	0.048	
CNc1ncc(-c2ccc3ncc4c(c3c2)n(-c2ccc(N3CC(O)C3)nc2C)c(=O)n4C)cc1F [Example 29.3, 8-(5-Fluoro-6-methylamino-pyridin-3-yl)-1-[6-(3-hydroxy-azetidin-1-yl)-2-methyl-pyridin-3-yl]-3-methyl-1,3-dihydro-imidazo[4,5-c]quinolin-2-one]	0.023	
Cc1nc(N2CCC2)ccc1-n1c(=O)n(C)c2cnc3ccc(-c4cncc(OC(C)C)c4)cc3c21 [Example 23.9, 1-(6-Azetidin-1-yl-2-methyl-pyridin-3-yl)-8-(5-isopropoxy-pyridin-3-yl)-3-methyl-1,3-dihydro-imidazo[4,5-c]quinolin-2-one]	0.032	
Cc1nc(C(C)(C)O)ccc1-n1c(=O)n(C)c2cnc3ccc(-c4cncc(C(C)(C)C#N)c4)cc3c21 [Example 31.6, 2-(5-{1-[6-(1-Hydroxy-1-methyl-ethyl)-2-methyl-pyridin-3-yl]-3-methyl-2-oxo-2,3-dihydro-1H-imidazo[4,5-c]quinolin-8-yl}-pyridin-3-yl)-2-methyl-propionitrile]	0.007	
CN(C)c1ccc(-c2ccc3ncc4c(c3c2)n(-c2cccnc2)c(=O)n4C)cn1 [Example 5.3, 8-(6-Dimethylamino-pyridin-3-yl)-3-methyl-1-pyridin-3-yl-1,3-dihydro-imidazo[4,5-c]quinolin-2-one]		0.193
COC1CCN(c2ccc(-n3c(=O)n(C)c4cnc5ccc(-c6cncc(C(C)(C)O)c6)cc5c43)c(C)n2)C1 (stereo not drawn) [Example 28.1, 8-[5-(1-Hydroxy-1-methyl-ethyl)-pyridin-3-yl]-1-[6-(3-methoxy-pyrrolidin-1-yl)-2-methyl-pyridin-3-yl]-3-methyl-1,3-dihydro-imidazo[4,5-c]quinolin-2-one]	0.059	
CCNc1ncc(-c2ccc3ncc4c(c3c2)n(-c2ccc(N3CC[C@@H](O)C3)nc2C)c(=O)n4C)cc1C(F)(F)F [Example 34.2, 8-(6-Ethylamino-5-trifluoromethyl-pyridin-3-yl)-1-[6-((R)-3-hydroxy-pyrrolidin-1-yl)-2-methyl-pyridin-3-yl]-3-methyl-1,3-dihydro-imidazo[4,5-c]quinolin-2-one]	0.012	
COc1cc(-c2ccc3ncc4c(c3c2)n(-c2ccc(N3CC(O)C3)nc2C)c(=O)n4C)cnc1CO [Example 29.5, 1-[6-(3-Hydroxy-azetidin-1-yl)-2-methyl-pyridin-3-yl]-8-(6-hydroxymethyl-5-methoxy-pyridin-3-yl)-3-methyl-1,3-dihydro-imidazo[4,5-c]quinolin-2-one]	0.05	
Cc1ncccc1-n1c(=O)n(C)c2cnc3ccc(-c4cncc(N5CCC5)c4)cc3c21 [Example 2.29, 8-(5-Azetidin-1-yl-pyridin-3-yl)-3-methyl-1-(2-methyl-pyridin-3-yl)-1,3-dihydro-imidazo[4,5-c]quinolin-2-one]	0.504	
CNc1ccc(-c2ccc3ncc4c(c3c2)n(-c2cccnc2C)c(=O)n4C)cn1 [Example 2.13, 3-Methyl-8-(6-methylamino-pyridin-3-yl)-1-(2-methyl-pyridin-3-yl)-1,3-dihydro-imidazo[4,5-c]quinolin-2-one]		0.02
Cc1nc(N2CCN(C)C(=O)C2)ccc1-n1c(=O)n(C)c2cnc3ccc(-c4cnc(N)c(C(F)(F)F)c4)cc3c21 [Example 21.1, 8-(6-Amino-5-trifluoromethyl-pyridin-3-yl)-3-methyl-1-[2-methyl-6-(4-methyl-3-oxo-piperazin-1-yl)-pyridin-3-yl]-1,3-dihydro-imidazo[4,5-c]quinolin-2-one]	0.005	
COc1ccc(-c2ccc3ncc4c(c3c2)n(-c2ncccc2C)c(=O)n4C)cc1OC [Example 3.10, 8-(3,4-Dimethoxy-phenyl)-3-methyl-1-(3-methyl-pyridin-2-yl)-1,3-dihydro-imidazo[4,5-c]quinolin-2-one]		0.151
CCOc1ccc(-c2ccc3ncc4c(c3c2)n(-c2cccnc2F)c(=O)n4C)cn1 [Example 6.1, 8-(6-Ethoxy-pyridin-3-yl)-1-(2-fluoro-pyridin-3-yl)-3-methyl-1,3-dihydro-imidazo[4,5-c]quinolin-2-one]		0.064
Cc1nc(N2CCC2)ccc1-n1c(=O)n(C)c2cnc3ccc(-c4cncc(C(C)(C)O)c4)cc3c21 [Example 23.3, 1-(6-Azetidin-1-yl-2-methyl-pyridin-3-yl)-8-[5-(1-hydroxy-1-methyl-ethyl)-pyridin-3-yl]-3-methyl-1,3-dihydro-imidazo[4,5-c]quinolin-2-one]	0.016	
Cc1ncccc1-n1c(=O)n(C)c2cnc3ccc(-c4ccc(C(N)=O)cc4)cc3c21 [Example 2.3, 4-[3-Methyl-1-(2-methyl-pyridin-3-yl)-2-oxo-2,3-dihydro-1H-imidazo[4,5-c]quinolin-8-yl]-benzamide]		0.093
Cc1nc(F)ccc1-n1c(=O)n(C)c2cnc3ccc(-c4cnc5c(ccn5C)c4)cc3c21 [Example 7.2, 1-(6-Fluoro-2-methyl-pyridin-3-yl)-3-methyl-8-(1-methyl-1H-pyrrolo[2,3-b]pyridin-5-yl)-1,3-dihydro-imidazo[4,5-c]quinolin-2-one]		0.031
Cc1ncccc1-n1c(=O)n(C)c2cnc3ccc(-c4cnc(N)c(C(F)(F)F)c4)cc3c21 [Example 2.11, 8-(6-Amino-5-trifluoromethyl-pyridin-3-yl)-3-methyl-1-(2-methyl-pyridin-3-yl)-1,3-dihydro-imidazo[4,5-c]quinolin-2-one]		0.012
Cc1nc(N2CCCC2)ccc1-n1c(=O)n(C)c2cnc3ccc(-c4cncc(C(C)(C)O)c4)cc3c21 [Example 25.3, 8-[5-(1-Hydroxy-1-methyl-ethyl)-pyridin-3-yl]-3-methyl-1-(2-methyl-6-pyrrolidin-1-yl-pyridin-3-yl)-1,3-dihydro-imidazo[4,5-c]quinolin-2-one]	< 0.003	
Cc1ncccc1-n1c(=O)n(C)c2cnc3ccc(-c4ccc(OCCCN(C)C)nc4)cc3c21 [Example 2.10, 8-[6-(3-Dimethylamino-propoxy)-pyridin-3-yl]-3-methyl-1-(2-methyl-pyridin-3-yl)-1,3-dihydro-imidazo[4,5-c]quinolin-2-one]		0.855
Cn1c(=O)n(-c2cccnc2F)c2c3cc(-c4cnc(N)c(C(F)(F)F)c4)ccc3ncc21 [Example 6.2, 8-(6-Amino-5-trifluoromethyl-pyridin-3-yl)-1-(2-fluoro-pyridin-3-yl)-3-methyl-1,3-dihydro-imidazo[4,5-c]quinolin-2-one]		0.012
CCOc1ccc(-c2ccc3ncc4c(c3c2)n(-c2ccc(N3CCNCC3)nc2OC)c(=O)n4C)cn1 [Example 9.1, 8-(6-Ethoxy-pyridin-3-yl)-1-(2-methoxy-6-piperazin-1-yl-pyridin-3-yl)-3-methyl-1,3-dihydro-imidazo[4,5-c]quinolin-2-one]		0.066
Cc1cccnc1-n1c(=O)n(C)c2cnc3ccc(-c4ccc(C(N)=O)cc4)cc3c21 [Example 3.3, 4-[3-Methyl-1-(3-methyl-pyridin-2-yl)-2-oxo-2,3-dihydro-1H-imidazo[4,5-c]quinolin-8-yl]-benzamide]		0.834
CNc1cncc(-c2ccc3ncc4c(c3c2)n(-c2cccnc2C)c(=O)n4C)c1 [Example 2.26, 3-Methyl-8-(5-methylamino-pyridin-3-yl)-1-(2-methyl-pyridin-3-yl)-1,3-dihydro-imidazo[4,5-c]quinolin-2-one]	0.046	
Cn1c(=O)n(-c2cccnc2)c2c3cc(-c4ccc(CO)nc4)ccc3ncc21 [Example 5.1, 8-(6-Hydroxymethyl-pyridin-3-yl)-3-methyl-1-pyridin-3-yl-1,3-dihydro-imidazo[4,5-c]quinolin-2-one]		0.088
Cc1nc(F)ccc1-n1c(=O)n(C)c2cnc3ccc(-c4cnc(N)c(C(F)(F)F)c4)cc3c21 [Example 7.1, 8-(6-Amino-5-trifluoromethyl-pyridin-3-yl)-1-(6-fluoro-2-methyl-pyridin-3-yl)-3-methyl-1,3-dihydro-imidazo[4,5-c]quinolin-2-one]		0.005
COc1ccc(-c2ccc3ncc4c(c3c2)n(-c2cccnc2C)c(=O)n4C)cn1 [Example 2.12, 8-(6-Methoxy-pyridin-3-yl)-3-methyl-1-(2-methyl-pyridin-3-yl)-1,3-dihydro-imidazo[4,5-c]quinolin-2-one]		0.032
COc1ncccc1-n1c(=O)n(C)c2cnc3ccc(-c4ccc(C(N)=O)cc4)cc3c21 [Example 1.6, 4-[1-(2-Methoxy-pyridin-3-yl)-3-methyl-2-oxo-2,3-dihydro-1H-imidazo[4,5-c]quinolin-8-yl]-benzamide]		0.163
COCc1ncc(-c2ccc3ncc4c(c3c2)n(-c2ccc(N3CCC3)nc2C)c(=O)n4C)cc1OC [Example 23.6, 1-(6-Azetidin-1-yl-2-methyl-pyridin-3-yl)-8-(5-methoxy-6-methoxymethyl-pyridin-3-yl)-3-methyl-1,3-dihydro-imidazo[4,5-c]quinolin-2-one]	0.046	
COc1ccc(-c2ccc3ncc4c(c3c2)n(-c2cnccc2C)c(=O)n4C)cn1 [Example 4.3, 8-(6-Methoxy-pyridin-3-yl)-3-methyl-1-(4-methyl-pyridin-3-yl)-1,3-dihydro-imidazo[4,5-c]quinolin-2-one]		0.12
